Assay results: PMC2994217 (British Journal of Cancer, 2010)
Like-named read-outs stand apart in the source and are kept apart here.

Columns and labels:
[1] = no reference given, cited from earlier work
[2] = Pharmacokinetics of sirolimus in blood (LC/MS/MS, non-compartmental); format: in vivo, patients; details: for Cmax / AUC(0-t) / half-life: human, whole blood; for half-life: read-out: t ½ (converted)
Excerpt: (§1) A paired t-test on log-transformed values was used to calculate changes in AUC, Cmax and t1/2. A P-value ⩽0.05 was considered significant.

[3] = oral
Experimental: Patients were initially treated in cohorts of six per dose level. […] Both drugs were administered orally. […] (Figure 1) The duration of one cycle was 28 days.
Toxicity was evaluated according to the common toxicity criteria for adverse events (AEs) (CTCAEv3.0).

[4] = Pharmacokinetics of sorafenib in plasma (LC/MS/MS, non-compartmental); format: in vivo, patients; details: for Cmax: human, plasma
Excerpt: as §1

[5] = im, 1 mg, DL IM, sor 400 mg b.i.d., sir 1 mg q.d., cycle 1 day 1, single-dose sir, geometric mean (95% CI), n=3
[6] = im, DL IM, sor 400 mg b.i.d., sir 1 mg q.d., cycle 1 day 16, continuous dosing sor on single-dose sir, geometric mean (95% CI), n=3
[7] = oral, 1 mg, DL 0, sor 200 mg b.i.d., sir 1 mg q.d., cycle 1 day 1, single-dose sir, geometric mean (95% CI), n=6
[8] = oral, 2 mg, DL 1, Sor 200 mg b.i.d., sir 2 mg q.d., cycle 1 day 1, single-dose sir, geometric mean (95% CI), n=6
[9] = oral, DL 0, sor 200 mg b.i.d., sir 1 mg q.d., cycle 1 day 16, continuous dosing sor on single-dose sir, geometric mean (95% CI), n=6
[10] = oral, DL 1, Sor 200 mg b.i.d., sir 2 mg q.d., cycle 1 day 16, continuous dosing sor on single-dose sir, geometric mean (95% CI), n=6

For `CO[C@H]1C[C@@H]2CC[C@@H](C)[C@@](O)(O2)C(=O)C(=O)N2CCCC[C@H]2C(=O)O[C@H]([C@H](C)C[C@@H]2CC[C@@H](O)[C@H](OC)C2)CC(=O)[C@H](C)/C=C(\C)[C@@H](O)[C@@H](OC)C(=O)[C@H](C)C[C@H](C)/C=C/C=C/C=C/1C` [sirolimus], the “time until mean steady-state concentrations are achieved” value [1] is given as 5 to 7 days, the terminal half-life ([1]; stable renal transplant recipients) is given as 62 ± 12 h and the “change in mean AUC(0−96 h) of sirolimus” value ([2]; DL 0, simultaneous administration of both drugs, P=0.955) is given as “no change”. The “average reduction of Cmax of sirolimus” value ([2]; DL 0, non-significant, P=0.515) was 18%, the “mean decrease of Cmax of sirolimus” value ([2]; DL 1, pre-treatment with 200 mg b.i.d. sorafenib, P=0.006) was 55% and the “change of mean terminal half-life of sirolimus” value ([2]; DL 1, pre-treatment with 200 mg b.i.d. sorafenib, P=0.66) was “remained unchanged”. The “decrease of AUC(0−96 h) of sirolimus” value ([2]; DL 1, pre-treatment with 200 mg b.i.d. sorafenib, non-significant, P=0.125) was 37%, the “average decrease of Cmax of sirolimus” value ([2]; DLim, P=0.027) was 55% and the “average decrease of AUC(0−96 h) of sirolimus” value ([2]; DLim, P=0.363) was 25%. It also gave a Cmax [2, 5] of 7.99 ng/mL, an AUC(0-t) ([2]; im, 1 mg, DL IM, sor 400 mg b.i.d., sir 1 mg q.d., cycle 1 day 1, single-dose sir, geometric mean (95% CI), n=3, read-out: AUC(0–96 h)) of 139 ng·h/mL and a half-life [2, 5] of 38.3 h. For the same compound, the AUC(0-t) ([2]; im, AUC(0–12 h), DL IM, sor 400 mg b.i.d., sir 1 mg q.d., cycle 2 day 1, continuous sor on continuous sir, geometric mean (95% CI), n=2) was 101 ng·h/mL, the AUC(0-t) ([2]; im, AUC(0–12 h), DL IM, sor 400 mg b.i.d., sir 1 mg q.d., cycle 2 day 15, continuous sor on continuous sir, n=2) was 113 ng·h/mL and the Cmax [2, 6] was 3.62 ng/mL. It also gave an AUC(0-t) ([2]; im, DL IM, sor 400 mg b.i.d., sir 1 mg q.d., cycle 1 day 16, continuous dosing sor on single-dose sir, geometric mean (95% CI), n=3, read-out: AUC(0–96 h)) of 104 ng·h/mL, a half-life [2, 6] of 32.9 h and a Cmax ([2]; im, DL IM, sor 400 mg b.i.d., sir 1 mg q.d., cycle 2 day 1, continuous sor on continuous sir, geometric mean (95% CI), n=2) of 11.2 ng/mL. It also gave a Cmax ([2]; im, DL IM, sor 400 mg b.i.d., sir 1 mg q.d., cycle 2 day 15, continuous sor on continuous sir, geometric mean (95% CI), n=2) of 13.7 ng/mL, a Cmax [2, 7] of 3.81 ng/mL and an AUC(0-t) ([2]; oral, 1 mg, DL 0, sor 200 mg b.i.d., sir 1 mg q.d., cycle 1 day 1, single-dose sir, geometric mean (95% CI), n=6, read-out: AUC(0–96 h)) of 91.1 ng·h/mL. It also gave a half-life [2, 7] of 45.5 h, a Cmax [2, 8] of 5.74 ng/mL and an AUC(0-t) ([2]; oral, 2 mg, DL 1, Sor 200 mg b.i.d., sir 2 mg q.d., cycle 1 day 1, single-dose sir, geometric mean (95% CI), n=6, read-out: AUC(0–96 h)) of 124 ng·h/mL. For the same compound, the half-life [2, 8] was 50.5 h, the AUC(0-t) ([2]; oral, AUC(0–12 h), DL 0, sor 200 mg b.i.d., sir 1 mg q.d., cycle 2 day 1, continuous sor on continuous sir, geometric mean (95% CI), n=6) was 59.4 ng·h/mL and the AUC(0-t) ([2]; oral, AUC(0–12 h), DL 0, sor 200 mg b.i.d., sir 1 mg q.d., cycle 2 day 15, continuous sor on continuous sir, geometric mean (95% CI), n=6) was 57.8 ng·h/mL. It also gave an AUC(0-t) ([2]; oral, AUC(0–12 h), DL 1, Sor 200 mg b.i.d., sir 2 mg q.d., cycle 2 day 1, continuous sor on continuous sir, geometric mean (95% CI), n=4) of 88.2 ng·h/mL, an AUC(0-t) ([2]; oral, AUC(0–12 h), DL 1, Sor 200 mg b.i.d., sir 2 mg q.d., cycle 2 day 15, continuous sor on continuous sir, n=1) of 84.6 ng·h/mL and a Cmax [2, 9] of 3.14 ng/mL. For the same compound, the AUC(0-t) ([2]; oral, DL 0, sor 200 mg b.i.d., sir 1 mg q.d., cycle 1 day 16, continuous dosing sor on single-dose sir, geometric mean (95% CI), n=6, read-out: AUC(0–96 h)) was 91.7 ng·h/mL, the half-life [2, 9] was 56.2 h and the Cmax ([2]; oral, DL 0, sor 200 mg b.i.d., sir 1 mg q.d., cycle 2 day 1, continuous sor on continuous sir, geometric mean (95% CI), n=6) was 6.3 ng/mL. The Cmax ([2]; oral, DL 0, sor 200 mg b.i.d., sir 1 mg q.d., cycle 2 day 15, continuous sor on continuous sir, geometric mean (95% CI), n=6) was 6.36 ng/mL, the Cmax [2, 10] was 2.6 ng/mL and the AUC(0-t) ([2]; oral, DL 1, Sor 200 mg b.i.d., sir 2 mg q.d., cycle 1 day 16, continuous dosing sor on single-dose sir, geometric mean (95% CI), n=6, read-out: AUC(0–96 h)) was 78.2 ng·h/mL. The half-life [2, 10] was 52.5 h, the Cmax ([2]; oral, DL 1, Sor 200 mg b.i.d., sir 2 mg q.d., cycle 2 day 1, continuous sor on continuous sir, geometric mean (95% CI), n=5) was 10 ng/mL and the Cmax ([2]; oral, DL 1, Sor 200 mg b.i.d., sir 2 mg q.d., cycle 2 day 15, continuous sor on continuous sir, n=2) was 17.6 ng/mL. The “effect of sorafenib on AUC(0−96) and Cmax of sirolimus” value ([2]; overall statement of abstract) was “reduced” and the “MTD of the combination, sirolimus dose” value ([3]; combined with sorafenib 200 mg b.i.d.) was 1 mg q.d.
In the case of `CNC(=O)c1cc(Oc2ccc(NC(=O)Nc3ccc(Cl)c(C(F)(F)F)c3)cc2)ccn1` [sorafenib], the “AUC(0–12 h)” value ([4]; DL 1, Sor 200 mg b.i.d., sir 2 mg q.d, cycle 2 day 1, continuous sir on continuous sor, geometric mean (95% CI), n=4) is reported as 39.3 (21–74) (n=4) mg h l^−1, the “mean decrease in AUC(0−12 h) of sorafenib” value ([4]; DLim, 1 mg sirolimus with 400 mg b.i.d. sorafenib, non-significant, P=0.14) is reported as 15% and the “mean decrease in Cmax of sorafenib” value ([4]; DLim, 1 mg sirolimus with 400 mg b.i.d. sorafenib, non-significant, P=0.57) is reported as 8%. The Cmax ([4]; im, 400 mg b.i.d., DL IM, Sor 400 mg b.i.d., sir 1 mg q.d., cycle 1 day 15, continuous dosing sor, geometric mean (95% CI), n=4) was 13000 ng/mL, the Cmax ([4]; im, DL IM, Sor 400 mg b.i.d., sir 1 mg q.d., cycle 1 day 16, single-dose sir on continuous dosing sor, geometric mean (95% CI), n=4) was 11900 ng/mL and the Cmax ([4]; im, DL IM, Sor 400 mg b.i.d., sir 1 mg q.d., cycle 2 day 1, continuous sir on continuous sor, geometric mean (95% CI), n=4) was 6640 ng/mL. For the same compound, the Cmax ([4]; im, DL IM, Sor 400 mg b.i.d., sir 1 mg q.d., cycle 2 day 15, continuous sir on continuous sor, geometric mean (95% CI), n=2) was 5550 ng/mL, the Cmax ([4]; oral, 200 mg b.i.d., DL 0, Sor 200 mg b.i.d., sir 1 mg q.d., cycle 1 day 15, continuous dosing sor, geometric mean (95% CI), n=6) was 7590 ng/mL and the Cmax ([4]; oral, DL 0, Sor 200 mg b.i.d., sir 1 mg q.d., cycle 2 day 1, continuous sir on continuous sor, geometric mean (95% CI), n=6) was 7120 ng/mL. For the same compound, the Cmax ([4]; oral, DL 0, Sor 200 mg b.i.d., sir 1 mg q.d., cycle 2 day 15, continuous sir on continuous sor, geometric mean (95% CI), n=6) was 7320 ng/mL, the Cmax ([4]; oral, DL 1, Sor 200 mg b.i.d., sir 2 mg q.d, cycle 2 day 1, continuous sir on continuous sor, geometric mean (95% CI), n=4) was 5150 ng/mL and the “effect of sirolimus on the PK of sorafenib” value ([4]; overall statement of abstract) was “did not change”. The “influence of sirolimus on AUC(0−12 h) of sorafenib” value ([4]; single oral doses of 1 mg or 2 mg sirolimus, sorafenib 200 mg b.i.d. multiple dosing, P=0.67) was “did not influence”, the “influence of sirolimus on Cmax of sorafenib” value ([4]; single oral doses of 1 mg or 2 mg sirolimus, sorafenib 200 mg b.i.d. multiple dosing, P=0.96) was “did not influence” and the elimination half-life [1] was 25 to 48 h. For the same compound, the “MTD of the combination, sorafenib dose” value ([3]; combined with sirolimus 1 mg q.d.) was 200 mg b.i.d.
